Results from patent publication US4057530A, “2-Phenyl-indole derivatives and process for preparing the same” (priority 1974, dated 1977).

How the values were obtained:
[1] = Static thermostability of stabilized resin, simplified method (GARDNER sub-scale), Compound E; details: 185° C
Procedure: (§1) The stabilizing power of the substances of the invention was studied from two points of view:
(§2) These studies were performed with six different formulae of vinyl resins (hereinafter referred to as Compounds).
(§3) The different compounds were mixed and calendered in a mixer of which the cylinders were heated to 160° C. The rigid sheets so obtained were then heated in an oven to a temperature between 180° C and 215° C, until incipient carbonization.
(§4) A stove with rotating drums, ventilated and equipped with a thermostat was used for this operation. In the trials described hereunder, the behaviour of a sheet containing the stabilizer to be tested was compared to that of a sheet of the same formula but containing 2-phenyl-indole as stabilizer.
(§5) 2. It is also possible to use a simplified method which is more rapid and with which valid results are also obtained: a reference scale is drawn up with sheets of thermally treated polyvinyl chloride, of which the colourations have been definitely determined in GARDNER degrees as above. A GARDNER sub-scale is thus obtained in polyvinyl chloride sheets which can be directly compared to the sheets to be tested without using the comparator.

[2] = assay type: physicochemical
Excerpt: The thermostability of Stabilizer 8 and that of 2-phenyl-indole were studied by differential thermoanalysis and by thermogravimetric analysis. […] Diagrams were made out for 2-phenyl-indole (i) and Compound 8 (ii) and enabled the following conclusions to be drawn: […]

[3] = Thermostability of the stabilizers: thermogravimetric analysis; assay type: physicochemical
Procedure: The thermostability of Stabilizer 8 and that of 2-phenyl-indole were studied by differential thermoanalysis and by thermogravimetric analysis.
This analysis necessitated two series of trials carried out under air and under inert gas (Argon) in order to eliminate any possible effect of oxygen. The results obtained were identical.
The temperature increase rate was 80° C/hour. Thermograms were drawn up under air for both 2-phenyl-indole (i) and for Stabilizer 8 (ii) and enabled the following conclusion to be drawn: […]

[4] = Dynamic thermostability of stabilized resin on a plastograph, Compound C; details: Compounds C and F, 190° C
Procedure: The dynamic thermostability of resins containing respectively 2-(4'-dodecyloxy-phenyl)-indole and 2-phenyl-indole as stabilizers was compared by using the Compounds numbered hereunder:
No. 609: Compound C with 2-phenyl-indole as Stabilizer
No. 675: Compound C with Stabilizer 8
The tests were performed on a plastograph, working at a temperature of 190° C, turning at a speed of 60 r.p.m. and containing a charge of 30 g of gelled material.
Two curves were drawn namely:
a decomposition curve giving the value of the resistant torque (m kg) in relation to time.
From this curve, two important results were obtained: the minimal resistant torque and the time of decomposition.
a curve giving the self-heating time in relation to temperature.
The self-heating time is defined by the moment when the temperature of the sheet exceeds the temperature of the plastograph (190° C).

[5] = Sublimation of the stabilizers; assay type: physicochemical; details: 120° C, 15 Torr, 150 min
Excerpt: A sample of the substance to be tested was introduced into a test tube and heated under reduced pressure. The fraction of sublimated substance was recovered on a mobile cold wall.
After a certain period of time, the sublimated substance was weighed and the result expressed as a percentage of the weight of the starting-material.
The results obtained can only be of relative value, enabling a comparison to be made between two products tested under the same conditions.
Operating conditions (chosen at random).
Temperature of heating 120° C
Temperature of the cold wall
Duration of heating 150 minutes

[6] = Static thermostability of stabilized resin, simplified method (GARDNER sub-scale), Compound C; details: 210° C
Procedure: as §1, §2, §3, §4, §5

[7] = Sticking of the stabilized material; details: cylinders at 210° C, 3 min mixing / 3 min rest
Procedure: Compounds Nos. 609 and 675 were placed in a mixer of the type previously used for studying static thermostability with cylinders at a fixed temperature of 210° C.
They were submitted to alternate periods of 3 minutes of mixing and 3 minutes of rest.

[8] = Static thermostability of stabilized resin, simplified method (GARDNER sub-scale), Compound D; details: 185° C
Procedure: as §1, §2, §3, §4, §5

[9] = Static thermostability of stabilized resin, GARDNER Scale Comparator, Compound B; details: 210° C
Procedure: as §1, §2, §3, §4
1. The colouration of the sheets, of which samples were removed from the stove at fixed intervals was compared to a standard scale of colouration, known as the GARDNER Scale, and expressed in terms of the reference figures of the GARDNER Scale.
Comparisons were made with a GARDNER Scale Comparator which contains 18 filters of coloured glass and which offers the possibility of observing by transparency and in a limited field of view both the sheet and the reference filters.
Compound B was used and the sheets obtained presented the following characteristics: […]

mice = assay: Acute toxicity by oral route in mice (LD50); assay type: in vivo; details: LD50 study
Procedure: (§6) The study of the acute toxicity of the stabilizers listed below was carried out by determining the dose of substance which provoked the death of 50% of the treated animals (LD50). A gummy suspension of the substance under study was administered by oral route to groups of at least ten mice and the following results were observed: […]

[10] = Acute toxicity by oral route in mice (LD50); assay type: in vivo; details: mouse, in vivo, gummy suspension
Procedure: as §6

CCCCCCCCCCCCOc1ccc(-c2cc3ccccc3[nH]2)cc1 [Stabilizer 8, 2-(4'-dodecyloxy-phenyl)-indole]
Colouration of sheet (GARDNER sub-scale) ([1]; 0 min): < 1 GARDNER degrees
Colouration of sheet (GARDNER sub-scale) ([1]; 10 min): < 1 GARDNER degrees
Colouration of sheet (GARDNER sub-scale) ([1]; 20 min): < 2 GARDNER degrees
Colouration of sheet (GARDNER sub-scale) ([1]; 30 min): < 3 GARDNER degrees
Melting temperature [2]: 203 °C
Start of decomposition ([2]; 2° C/minute): 300 °C
Start of weight loss ([3]; 80° C/hour, under air): about 295 °C
Thermostability of the stabilizer compared with 2-phenyl-indole ([3]; thermogravimetric analysis and differential thermoanalysis): greater thermostability than 2-phenyl-indole
Dynamic thermostability compared with 2-phenyl-indole [4]: slight superiority over 2-phenyl-indole
Sublimation relative to 2-phenyl-indole [5]: forty times less than that of 2-phenyl-indole
Percentage of sublimated substance ([5]; cold wall 13° C): 0.6%
Colouration of sheet (GARDNER sub-scale) ([6]; 0 min): 1 GARDNER degrees
Colouration of sheet (GARDNER sub-scale) ([6]; 10 min): 1.5 GARDNER degrees
Colouration of sheet (GARDNER sub-scale) ([6]; 20 min): 2 GARDNER degrees
Colouration of sheet (GARDNER sub-scale) ([6]; 30 min): 2.5 GARDNER degrees
Colouration of sheet (GARDNER sub-scale) ([6]; 40 min): < 3 GARDNER degrees
Colouration of sheet (GARDNER sub-scale) ([6]; 50 min): 3 GARDNER degrees
Colouration of sheet (GARDNER sub-scale) ([6]; 55 min): 3 GARDNER degrees
Colouration of sheet (GARDNER sub-scale) ([6]; 60 min): 3.5 GARDNER degrees
Static thermostability compared with 2-phenyl-indole ([6]; after 60 min): superior as a stabilizer to 2-phenyl-indole
Sticking of the stabilized material [7]: comparable
Colouration given to the co-polymer [8]: less yellow-coloured than that containing 2-phenyl-indole
Static thermostability compared with 2-phenyl-indole [8]: superior to 2-phenyl-indole
Colouration of sheet (GARDNER sub-scale) ([8]; 0 min): < 1 GARDNER degrees
Colouration of sheet (GARDNER sub-scale) ([8]; 10 min): < 2 GARDNER degrees
Colouration of sheet (GARDNER sub-scale) ([8]; 20 min): 2 GARDNER degrees
Colouration of sheet (GARDNER sub-scale) ([8]; 30 min): < 3 GARDNER degrees
Colouration of sheet (GARDNER Scale) ([9]; 0 min): 1 GARDNER degrees
Colouration of sheet (GARDNER Scale) ([9]; 3 min): 1 GARDNER degrees
Colouration of sheet (GARDNER Scale) ([9]; 6 min): 2 GARDNER degrees
Colouration of sheet (GARDNER Scale) ([9]; 9 min): 3 GARDNER degrees
Colouration of sheet (GARDNER Scale) ([9]; 12 min): 3 GARDNER degrees
Colouration of sheet (GARDNER Scale) ([9]; 15 min): 5 GARDNER degrees
Colouration of sheet (GARDNER Scale) ([9]; 18 min): 7 GARDNER degrees
Colouration of sheet (GARDNER Scale) ([9]; 21 min): 11 GARDNER degrees
Static thermostability compared with 2-phenyl-indole ([9]; 21 min): clearly superior to 2-phenyl-indole
Thickness of sheet ([9]; after 21 min): 1.30 mm
State of sheet ([9]; after 24 min): burnt
Toxic symptoms (mice): none
LD50 [10]: > 5000 mg/kg
